# Reference: patent publication US20120324604A1, “PESTICIDAL MIXTURES CONTAINING ISOXAZOLINE DERIVATIVES AND A FUNGICIDE” (priority 2010, published 2012)
# Values joined by “and” are separate entries in the source; they are usually repeats but may differ in a detail not shown here. Identical values can stand only once.
# Legend:
# Format in all cases: cell-based
# [1] = tested on: Septoria tritici; assay: Septoria tritici (Leaf Blotch) growth inhibition, microtiter plate, photometric; details: for AVERAGE DEAD IN % A1: A1 alone; for AVERAGE DEAD IN %: alone; for AVERAGE DEAD IN % Difenoconazole: Difenoconazole alone
# Procedure: Septoria tritici (Leaf Blotch):
# (§1) Conidia of the fungus from cryogenic storage were directly mixed into nutrient broth (potato dextrose broth). After placing a (DMSO) solution of the test compounds into a microtiter plate (96-well format) the nutrient broth containing the fungal spores was added.
# [2] = tested on: Glomerella lagenarium (syn. Colletotrichum lagenarium); assay: Glomerella lagenarium (Anthracnose of Cucurbits) growth inhibition, microtiter plate, photometric; details: alone
# Procedure: Glomerella lagenarium (syn. Colletotrichum lagenarium), Anthracnose of Cucurbits:
# as §1
# [3] = tested on: Gaeumannomyces graminis; assay: Gaeumannomyces graminis growth inhibition, microtiter plate, photometric
# Procedure: Mycelial fragments of the fungus from cryogenic storage were directly mixed into nutrient broth (potato dextrose broth). After placing a (DMSO) solution of the test compounds into a microliter plate (96-well format) the nutrient broth containing the fungal spores was added.
# [4] = tested on: Fusarium culmorum; assay: Fusarium culmorum (Root Rot) growth inhibition, microtiter plate, photometric
# Procedure: Fusarium culmorum (Root Rot):
# as §1
# [5] = tested on: Mycosphaerella arachidis (syn. Cercospora arachidicola); assay: Mycosphaerella arachidis (Brown Leaf Spot of Groundnut) growth inhibition, microtiter plate, photometric; details: alone
# Procedure: Mycosphaerella arachidis (syn. Cercospora arachidicola), Brown Leaf Spot of Groundnut (Peanut):
# as §1
# [6] = tested on: Rhizoctonia solani; assay: Rhizoctonia solani (Foot Rot, Damping-Off) growth inhibition, microtiter plate, photometric
# Procedure: Rhizoctonia solani (Foot Rot, Damping-Off):
# Mycelial fragments of the fungus from cryogenic storage were directly mixed into nutrient broth (potato dextrose broth). After placing a (DMSO) solution of the test compounds into a microtiter plate (96-well format) the nutrient broth containing the fungal spores was added.
# [7] = tested on: Pythium ultimum; assay: Pythium ultimum (Damping Off) growth inhibition, microtiter plate, photometric
# Procedure: Pythium ultimum (Damping Off):
# Mycelial fragments of the fungus, prepared from a fresh liquid culture, were directly mixed into nutrient broth (potato dextrose broth). After placing a (DMSO) solution of the test compounds into a microtiter plate (96-well format) the nutrient broth containing the fungal spores was added.
# [8] = applied alone, 0.0390625 ppm AI
# [9] = single compound at 0.0390625 ppm AI
# [10] = single compound at 0.078125 ppm AI
# [11] = single compound at 0.15625 ppm AI
# [12] = single compound at 0.3125 ppm AI
# [13] = single compound at 0.625 ppm AI
smiles,measurement,setting,value
Cc1cc(C2=NOC(c3cc(Cl)cc(Cl)c3)(C(F)(F)F)C2)ccc1C(=O)NC1(C)CSC1 (racemic) [A1],AVERAGE DEAD IN % A1,[1]; 0.0390625 ppm AI,0%
same,AVERAGE DEAD IN % A1,[1]; 0.078125 ppm AI,0%
same,AVERAGE DEAD IN % A1,[1]; 0.15625 ppm AI,0%
same,AVERAGE DEAD IN % A1,[1]; 0.3125 ppm AI,0%
same,AVERAGE DEAD IN % A1,[1]; 0.625 ppm AI,0%
same,AVERAGE DEAD IN % A1,[1]; 1.25 ppm AI,0%
same,AVERAGE DEAD IN % A1,[1]; 2.5 ppm AI,0%
same,AVERAGE DEAD IN % A1,[1]; 5 ppm AI,0%
same,AVERAGE DEAD IN % A1,[1]; 10 ppm AI,0%
same,AVERAGE DEAD IN % A1,[1]; 20 ppm AI,0%
same,AVERAGE DEAD IN %,[1]; 0.0390625 ppm AI,0%
same,AVERAGE DEAD IN %,[1]; 0.078125 ppm AI,0%
same,AVERAGE DEAD IN %,[1]; 0.15625 ppm AI,0%
same,AVERAGE DEAD IN %,[1]; 0.3125 ppm AI,0%
same,AVERAGE DEAD IN %,[1]; 0.625 ppm AI,0%
same,AVERAGE DEAD IN %,[1]; 1.25 ppm AI,0%
same,AVERAGE DEAD IN %,[1]; 2.5 ppm AI,0%
same,AVERAGE DEAD IN %,[1]; 5 ppm AI,0%
same,AVERAGE DEAD IN %,[1]; 10 ppm AI,0%
same,AVERAGE DEAD IN %,[1]; 20 ppm AI,0%
same,AVERAGE DEAD IN %,[2]; 0.0390625 ppm AI,0%
same,AVERAGE DEAD IN %,[2]; 0.078125 ppm AI,0%
same,AVERAGE DEAD IN %,[2]; 0.15625 ppm AI,0%
same,AVERAGE DEAD IN %,[2]; 0.3125 ppm AI,0%
same,AVERAGE DEAD IN %,[2]; 0.625 ppm AI,0%
same,AVERAGE DEAD IN %,[2]; 1.25 ppm AI,0%
same,AVERAGE DEAD IN %,[2]; 2.5 ppm AI,0%
same,AVERAGE DEAD IN %,[2]; 5 ppm AI,0%
same,AVERAGE DEAD IN %,[2]; 10 ppm AI,0%
same,AVERAGE DEAD IN %,[2]; 20 ppm AI,0%
same,AVERAGE DEAD IN %,[3]; [8],0%
same,AVERAGE DEAD IN %,"[3]; applied alone, 0.078125 ppm AI",0%
same,AVERAGE DEAD IN %,"[3]; applied alone, 0.15625 ppm AI",0%
same,AVERAGE DEAD IN %,"[3]; applied alone, 0.3125 ppm AI",0%
same,AVERAGE DEAD IN %,"[3]; applied alone, 0.625 ppm AI",0%
same,AVERAGE DEAD IN %,"[3]; applied alone, 1.25 ppm AI",0%
same,AVERAGE DEAD IN %,"[3]; applied alone, 2.5 ppm AI",0%
same,AVERAGE DEAD IN %,"[3]; applied alone, 5 ppm AI",0%
same,AVERAGE DEAD IN %,"[3]; applied alone, 10 ppm AI",0%
same,AVERAGE DEAD IN %,"[3]; applied alone, 20 ppm AI",0%
same,AVERAGE DEAD IN %,[3]; [9],0%
same,AVERAGE DEAD IN %,[3]; [10],0%
same,AVERAGE DEAD IN %,[3]; [11],0%
same,AVERAGE DEAD IN %,[3]; [12],0%
same,AVERAGE DEAD IN %,[3]; [13],0%
same,AVERAGE DEAD IN %,[3]; single compound at 1.25 ppm AI,0%
same,AVERAGE DEAD IN %,[3]; single compound at 2.5 ppm AI,0%
same,AVERAGE DEAD IN %,[3]; single compound at 5 ppm AI,0%
same,AVERAGE DEAD IN %,[3]; single compound at 10 ppm AI,0%
same,AVERAGE DEAD IN %,[3]; single compound at 20 ppm AI,0%
same,AVERAGE DEAD IN %,"[4]; alone, 0.625 PPM AI",0%
same,AVERAGE DEAD IN %,"[4]; alone, 1.25 PPM AI",0%
same,AVERAGE DEAD IN %,"[4]; alone, 2.5 PPM AI",0%
same,AVERAGE DEAD IN %,"[4]; alone, 5 PPM AI",0%
same,AVERAGE DEAD IN %,"[4]; alone, 10 PPM AI",0%
same,AVERAGE DEAD IN %,"[4]; alone, 20 PPM AI",0%
same,AVERAGE DEAD IN %,[5]; 0.0390625 ppm AI,0%
same,AVERAGE DEAD IN %,[5]; 0.078125 ppm AI,0%
same,AVERAGE DEAD IN %,[5]; 0.15625 ppm AI,0%
same,AVERAGE DEAD IN %,[5]; 0.3125 ppm AI,0%
same,AVERAGE DEAD IN %,[5]; 0.625 ppm AI,0%
same,AVERAGE DEAD IN %,[5]; 1.25 ppm AI,0%
same,AVERAGE DEAD IN %,[5]; 2.5 ppm AI,0%
same,AVERAGE DEAD IN %,[5]; 5 ppm AI,0%
same,AVERAGE DEAD IN %,[5]; 10 ppm AI,0%
same,AVERAGE DEAD IN %,[6]; [8],0%
same,AVERAGE DEAD IN %,"[6]; applied alone, 0.078125 ppm AI",0%
same,AVERAGE DEAD IN %,"[6]; applied alone, 0.15625 ppm AI",0%
same,AVERAGE DEAD IN %,"[6]; applied alone, 0.3125 ppm AI",0%
same,AVERAGE DEAD IN %,"[6]; applied alone, 0.625 ppm AI",0%
same,AVERAGE DEAD IN %,"[6]; applied alone, 1.25 ppm AI",0%
same,AVERAGE DEAD IN %,"[6]; applied alone, 2.5 ppm AI",0%
same,AVERAGE DEAD IN %,"[6]; applied alone, 5 ppm AI",0%
same,AVERAGE DEAD IN %,"[6]; applied alone, 10 ppm AI",0%
same,AVERAGE DEAD IN %,"[6]; applied alone, 20 ppm AI",0%
same,AVERAGE DEAD IN %,[6]; [9],0%
same,AVERAGE DEAD IN %,[6]; [10],0%
same,AVERAGE DEAD IN %,[6]; [11],0%
same,AVERAGE DEAD IN %,[6]; [12],0%
same,AVERAGE DEAD IN %,[6]; [13],0%
same,AVERAGE DEAD IN %,[6]; single compound at 1.25 ppm AI,0%
same,AVERAGE DEAD IN %,[6]; single compound at 2.5 ppm AI,0%
same,AVERAGE DEAD IN %,[6]; single compound at 5 ppm AI,0%
same,AVERAGE DEAD IN %,[6]; single compound at 10 ppm AI,0%
same,AVERAGE DEAD IN %,[6]; single compound at 20 ppm AI,0%
same,AVERAGE DEAD IN %,[7]; [9],0%
same,AVERAGE DEAD IN %,[7]; [10],0%
same,AVERAGE DEAD IN %,[7]; [11],0%
same,AVERAGE DEAD IN %,[7]; [12],0%
same,AVERAGE DEAD IN %,[7]; [13],0%
same,AVERAGE DEAD IN %,[7]; single compound at 1.25 ppm AI,0%
same,AVERAGE DEAD IN %,[7]; single compound at 2.5 ppm AI,0%
same,AVERAGE DEAD IN %,[7]; single compound at 5 ppm AI,0%
same,AVERAGE DEAD IN %,[7]; single compound at 10 ppm AI,0%
same,AVERAGE DEAD IN %,[7]; single compound at 20 ppm AI,0%
CC1COC(Cn2cncn2)(c2ccc(Oc3ccc(Cl)cc3)cc2Cl)O1 (centres unmarked) [Difenoconazole],AVERAGE DEAD IN %,[1]; 0.03125 ppm AI,50%
same,AVERAGE DEAD IN %,[1]; 0.0625 ppm AI,70%
same,AVERAGE DEAD IN %,[1]; 0.125 ppm AI,90%
same,AVERAGE DEAD IN %,[1]; 0.25 ppm AI,90%
same,AVERAGE DEAD IN %,[1]; 0.5 ppm AI,90%
same,AVERAGE DEAD IN %,[1]; 1 ppm AI,90%
same,AVERAGE DEAD IN %,[1]; 2 ppm AI,90%
same,AVERAGE DEAD IN % Difenoconazole,[1]; 0.0078125 ppm AI,0%
same,AVERAGE DEAD IN % Difenoconazole,[1]; 0.015625 ppm AI,0%
same,AVERAGE DEAD IN % Difenoconazole,[1]; 0.0625 ppm AI,50% and 70%
same,AVERAGE DEAD IN % Difenoconazole,[1]; 0.125 ppm AI,70% and 90%
same,AVERAGE DEAD IN % Difenoconazole,[1]; 0.25 ppm AI,70% and 90%
same,AVERAGE DEAD IN % Difenoconazole,[1]; 0.5 ppm AI,90%
same,AVERAGE DEAD IN % Difenoconazole,[1]; 1 ppm AI,90%
same,AVERAGE DEAD IN % Difenoconazole,[1]; 2 ppm AI,90%
same,AVERAGE DEAD IN %,[2]; 0.5 ppm AI,20%
same,AVERAGE DEAD IN %,[2]; 1 ppm AI,20%
same,AVERAGE DEAD IN %,[3]; single compound at 0.25 ppm AI,0%
same,AVERAGE DEAD IN %,[3]; single compound at 0.5 ppm AI,0%
same,AVERAGE DEAD IN %,[3]; single compound at 1 ppm AI,20%
same,AVERAGE DEAD IN %,[3]; single compound at 2 ppm AI,90%
same,AVERAGE DEAD IN %,"[4]; alone, 0.25 PPM AI",20%
same,AVERAGE DEAD IN %,"[4]; alone, 0.5 PPM AI",20%
same,AVERAGE DEAD IN %,"[4]; alone, 1 PPM AI",20%
same,AVERAGE DEAD IN %,"[4]; alone, 2 PPM AI",90%
same,AVERAGE DEAD IN %,"[4]; single compound, 0.25 PPM AI, 48 hrs, 24° C.",20%
same,AVERAGE DEAD IN %,"[4]; single compound, 0.5 PPM AI, 48 hrs, 24° C.",20%
same,AVERAGE DEAD IN %,"[4]; single compound, 1 PPM AI, 48 hrs, 24° C.",70%
same,AVERAGE DEAD IN %,[5]; 0.00390625 ppm AI,0%
same,AVERAGE DEAD IN %,[5]; 0.0078125 ppm AI,50%
same,AVERAGE DEAD IN %,[5]; 0.00390625 PPM AI,0%
same,AVERAGE DEAD IN %,[5]; 0.015625 PPM AI,50% and 90%
same,AVERAGE DEAD IN %,"[6]; applied alone, 0.25 ppm AI",20%
same,AVERAGE DEAD IN %,"[6]; applied alone, 0.5 ppm AI",50% and 70%
same,AVERAGE DEAD IN %,"[6]; applied alone, 1 ppm AI",50% and 100%
same,AVERAGE DEAD IN %,"[6]; applied alone, 2 ppm AI",100%
